Source: PubChem BioAssay AID179 (DTP/NCI, 2004)
Where “and” joins values, the source holds several entries; their conditions need not be identical. Equal entries are not always repeated. Calls of active or inactive are those of the source.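 Rule for the calls: active = compounds giving half or more protection of infected cells from virus-caused growth loss, again on retest; inactive = the rest.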

Test system: CEM cells HIV-1 protection, formazan growth assay
Assay: NCI AIDS Antiviral Assay
Settings: for IC50: measured here: growth of uninfected CEM cells
In short: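 Protection of CEM cells against HIV-1 was scored from cell growth (soluble formazan) across five concentrations, with parallel uninfected cells. Lack of protection may reflect toxicity.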

Row | SMILES | EC50 | IC50 | outcome
1 | C[C@@H](NC(=O)Nc1cccc(C(=O)Nc2cc(C(C)(C)C)ccc2C(=O)O)n1)c1ccccc1 | > 200 µM | 17.4 µM | –
2 | COc1cc(C2(C)SCCCS2)c(I)c(OC)c1OC | > 234 µM | 6.17 µM | –
3 | C=CCC1C(O[Si](C)(C)C(C)(C)C)C(CO[Si](C)(C)C(C)(C)C)OC1n1ccc(=O)[nH]c1=O (stereo not drawn) | > 200 µM | 2.75 µM | –
4 | Cc1ccsc1/C=N/NC1=NCCN1 | > 200 µM | > 100 µM | –
5 | CSc1n[nH]c2n[nH]c(C)c12 | > 200 µM | 105 µM | –
6 | COC(=O)c1cc(C(=CCCBr)c2cc(Cl)c(OC)c(C(=O)OC)c2)cc(Cl)c1OC | 16.6 µM | 21.9 µM | –
7 | CC(=O)n1c(O)c(N=Nc2ccccc2[N+](=O)[O-])c2ccccc21 | > 200 µM | > 200 µM | –
8 | COC(OC)c1cccc2c1C1(O)CCC3(CC21)OCCCCO3 (stereo not drawn) | > 200 µM | > 200 µM | –
9 | O=S1(=O)CCc2ccccc2C(Cl)C1 (stereo not drawn) | > 407 µM | > 407 µM | –
10 | O=C(Nc1ccc(C2=NCCN2)cc1)c1cccc(NC(=S)Nc2ccc(C3=NCCN3)cc2)c1 | 33.1 µM | 112 µM | –
11 | Cc1csc2[n+]1C(=O)/C(=C\c1ccc([N+](=O)[O-])cc1)S2 | > 200 µM | 29.5 µM | –
12 | O=C(/C=C/c1ccccc1)CCN1CCCC1 | > 200 µM | 8.13 µM | –
13 | O=C(NCCSSCCNC(=O)/C(Cc1ccc(O)c(Br)c1)=N/O)/C(Cc1ccc(O)c(Br)c1)=N/O | – | – | inactive
14 | CCOC(=O)Nn1c(CC#N)nnc1Cc1ccccc1 | > 200 µM | > 200 µM | –
15 | CC(C)(S)C(N)C(=O)O (stereo not drawn) | > 1660 µM | > 1660 µM | –
16 | CN(C)c1ccc(C(=C2C=CC(=[N+](C)C)C=C2)c2cc(S(=O)(=O)O)cc3cc(S(=O)(=O)O)ccc23)cc1 | > 100 µM | > 100 µM | –
17 | CC1OC(OCC2OC(Oc3c(-c4ccc(O)cc4)oc4cc(O)cc(O)c4c3=O)C(OC3OC(C)C(O)C(O)C3O)C(O)C2O)C(O)C(O)C1O (stereo not drawn) | > 339 µM | > 339 µM | –
18 | Cc1ncc(N)c(C(=O)O)n1 | > 1620 µM | > 1620 µM | –
19 | CC1=C(C/C=C/c2ccccc2)C(=O)c2ccccc2C1=O | – | – | inactive
20 | CCOC(=O)CN=C1NNS(=O)(=O)c2ccccc21 | > 200 µM | 110 µM | –
21 | Cc1[nH]c(=O)[nH]c(=O)c1CO | > 200 µM | 105 µM | –
22 | CC(C)NCC1CCc2cc(CO)c([N+](=O)[O-])cc2N1 (stereo not drawn) | > 200 µM | > 200 µM | –
23 | Cc1c(Cc2ccccc2)n(COCCCN2C(=O)c3ccccc3C2=O)c(=O)[nH]c1=O | > 200 µM | 26.3 µM | –

Row | SMILES | EC50 | IC50 | outcome
24 | CN1C(=O)c2cccc3c([N+](=O)[O-])ccc(c23)C1=O | > 20.4 µM | 7.76 µM | –
25 | CCOC(=O)CC(NC(=O)c1ccc(N=NN(C)C)cc1)C(=O)OCC (stereo not drawn) | > 186 µM | > 186 µM | –
26 | O=c1cc(O)c2ccc(O)cc2o1 | > 40.7 µM | > 40.7 µM | –
27 | BrC12C3C4C5C(C(C43)C13OCCO3)C52 (stereo not drawn) | > 708 µM | > 708 µM | –
28 | Cn1c(-c2cccc([N+](=O)[O-])c2)[n+](C)c2ccccc21 | > 200 µM | 18.6 µM | –
29 | COc1ccc2c(c1)CCc1cnc(=S)[nH]c1-2 | > 40.7 µM | > 40.7 µM | –
30 | CCOC(=O)C(C/C(C)=C/c1ccccc1)C(=O)OCC | > 200 µM | 182 µM | –
31 | Nc1n[n+]([O-])c2ccc(Cl)cc2[n+]1[O-] | > 200 µM | 3.55 µM | –
32 | Clc1cc(OC23CC4CC(CC(C4)C2)C3)nc(Cl)n1 | > 100 µM | 45.7 µM | –
33 | CCOC(=O)CSc1nc(-c2ccc(OC)cc2)c(C#N)c(=O)[nH]1 | > 200 µM | 97.7 µM | –
34 | COc1cc(C2c3cc4c(cc3OC3(OC)COC(=O)C23)OCO4)cc(OC)c1OC(C)=O (stereo not drawn) | > 100 µM | 0.562 µM | –
35 | COc1nc2ncc([C@@H](O)[C@H](O)CO)nc2c(=O)[nH]1 | > 200 µM | > 200 µM | –
36 | Cc1n[nH]c(=O)n1C1CCCC1 | > 200 µM | > 200 µM | –
37 | CSC(SC)=C(C(=O)c1ccc(Cl)cc1)n1c(=O)sc2cc(Br)ccc21 | > 200 µM | 12.3 µM | –
38 | CC[C@@H]1C[C@H]2CC3c4c(c5cc(OC)ccc5n4C)CCN(C2)C31 | – | – | inactive
39 | NC(N)=NS(=O)(=O)c1ccc(NC(=O)c2cccc3cc4ccccc4nc23)cc1 | > 53.7 µM | 16.2 µM | –
40 | NCCN1C(=O)c2ccccc2C1c1ccc(Cl)cc1 (stereo not drawn) | > 200 µM | > 200 µM | –
41 | C#CCN(N=O)C(=O)NCCCC(NC(C)=O)C(=O)NCc1ccccc1 (stereo not drawn) | > 676 µM | 51.3 µM | –
42 | O=NN1C(c2ccccc2)CC(=NO)CC1c1ccccc1 (stereo not drawn) | > 200 µM | 129 µM | –
43 | O=C1CC(c2ccccc2)NC(=O)N1CCN1CCOCC1 (stereo not drawn) | > 200 µM | > 200 µM | –
44 | O=C(Cl)c1ccc([As](=O)(O)O)cc1 | > 200 µM | > 200 µM | –
45 | CCOC(=O)C1([N+](=O)[O-])[C@@H]2CCCC[C@@H]21 (stereo partly drawn) | > 316 µM | > 316 µM | –
46 | O=C(O)c1cccc(OCCOc2cccc(C(=O)O)c2[N+](=O)[O-])c1[N+](=O)[O-] | > 200 µM | > 200 µM | –

Row | SMILES | EC50 | IC50 | outcome
47 | [Pt].c1ccc([PH+](c2ccccc2)c2ccccc2)cc1.c1ccc([PH+](c2ccccc2)c2ccccc2)cc1.c1ccc([PH+](c2ccccc2)c2ccccc2)cc1.c1ccc([PH+](c2ccccc2)c2ccccc2)cc1 | > 11 µM | > 11 µM | –
48 | CCOC(=O)OC1C(Br)C2CCC1(C)C2(C)C (stereo not drawn) | > 200 µM | > 200 µM | –
49 | Cc1cc2c(cc1C)C(=O)C1(C2)Cc2c(C)ccc(C)c2C1=O (stereo not drawn) | > 100 µM | > 100 µM | –
50 | CCOC(=O)C1C(=O)CC(C)(O)C(C(=O)OCC)C1c1ccc(OC)cc1 (stereo not drawn) | > 200 µM | > 200 µM | –
51 | CC(C)(C)OC(=O)NC(Cc1ccc(OC(C)(C)C)cc1)C(=O)N[C@H]1CCC[C@H]1C(=O)NC(Cc1ccccc1)C(=O)N1CCCC1C(N)=O (stereo partly drawn) | > 100 µM | > 100 µM | –
52 | Nc1ccc([N+](=O)[O-])cc1N=C/C=C/c1ccccc1 | > 10.2 µM | > 10.2 µM | –
53 | O=C(Nc1cccc(F)c1)c1c(O)[nH]c(=S)[nH]c1=O | > 5.13 µM | > 5.13 µM | –
54 | COc1ccccc1C1C2=C(COC2=O)OC(C)(C)Oc2cc3c(cc21)OCO3 (stereo not drawn) | – | – | inactive
55 | CC(NC(=O)N(C)C)NC(=O)N(C)C | – | – | inactive
56 | CN1C(=O)C2CCCC(=O)N2c2cccnc21 (stereo not drawn) | > 200 µM | > 200 µM | –
57 | Cc1[nH]c(N)c(C#N)c1Cc1ccccc1 | > 200 µM | > 200 µM | –
58 | CCOc1ccccc1NC(=O)/C(=N\NC(C)(C)C)C1C(=O)Nc2ccccc2S1=O (stereo not drawn) | > 112 µM | 17.8 µM | –
59 | CCOc1ncnc2c1ncn2C1OC(CO)CC1F (stereo not drawn) | > 178 µM | > 178 µM | –
60 | Cc1nn(-c2ccccn2)c2ncnc(N)c12 | > 200 µM | 162 µM | –
61 | O=C1C(Cl)C(c2cccc(O)c2)N1n1cnc2ccccc2c1=O (stereo not drawn) | > 75.9 µM | > 75.9 µM | –
62 | C[C@]12CCC(=O)C=C1CC[C@@H]1C2CC[C@]2(C)c3nn(-c4ccccc4)nc3CC12 (stereo partly drawn) | – | – | inactive
63 | CCCCCCCCCCCCCCCCSS(C)(=O)=O | > 13.8 µM | 6.92 µM | –
64 | Nc1ncnc2c1ccn2COC(CO)CO | > 200 µM | > 200 µM | –
65 | CC(=O)OCC1OC(n2c(C)c(C)cc(C#N)c2=S)C(OC(C)=O)C(OC(C)=O)C1OC(C)=O (stereo not drawn) | > 200 µM | > 200 µM | –
66 | CCOC(=O)C1(C/C=C\CBr)CCCCCCCCCCC1=O (stereo not drawn) | > 200 µM | 0.933 µM | –
67 | COC(=O)CC1(C)[C@H](O)[C@H]2OC(C)(C)O[C@H]2[C@@H]1O (stereo partly drawn) | > 955 µM | > 955 µM | –
68 | O=C1CN(c2cccc(C(F)(F)F)c2)C(=O)CN1CCN1CC(=O)N(c2cccc(C(F)(F)F)c2)CC1=O | > 200 µM | > 200 µM | –
69 | COc1ccc(CNNCc2ccc(OC)cc2)cc1 | > 200 µM | 110 µM | –

Row | SMILES | EC50 | IC50 | outcome
70 | CCC(C)(O)c1cn(-c2ccc(Cl)cc2)nn1 (stereo not drawn) | > 708 µM | 324 µM | –
71 | CCCCCCCCCCCCCCCCCCN1C(=O)c2ccccc2[Se]1=O (stereo not drawn) | > 0.813 µM | > 0.813 µM | –
72 | COc1ccccc1Cn1[nH]c(=O)c2cc([N+](=O)[O-])ccc21 | > 200 µM | 63.1 µM | –
73 | COc1ccc(NC(=O)C2=CC(=O)c3ccc(O)cc3C2=O)c(OC)c1 | 75.9 µM | 708 µM | –
74 | CN1C(=O)NC(C=O)(CCc2ccccc2)C1=O (stereo not drawn) | – | – | inactive
75 | CN1CCCc2nc3ccccc3n2C1 | > 36.3 µM | > 36.3 µM | –
76 | COC(=O)c1c(C)cc(OC(=O)c2c(C)cc(O)c(C=O)c2O)c(C)c1O | > 151 µM | 20.4 µM | –
77 | COc1ccc(/C=C2\CN(C)Cc3c2[nH]c(=O)c(C#N)c3-c2ccc(OC)cc2)cc1 | > 200 µM | 97.7 µM | –
78 | NS(=O)(=O)c1ccc(NC(NC(=O)C(C(F)(F)F)C(F)(F)F)(C(F)(F)F)C(F)(F)F)cc1 | > 200 µM | > 200 µM | –
79 | Cl/C=C\C[N+]12CN3CN(CN(C3)C1)C2 | > 200 µM | 93.3 µM | –
80 | CCn1c(-c2ccc(C)cc2)cs/c1=N\C(P(=O)(O)O)P(=O)(O)O | > 50.1 µM | > 50.1 µM | –
81 | CCOC(=O)c1nc2ccccc2nc1Oc1ccc(C#N)cc1 | > 200 µM | > 200 µM | –
82 | NNC(=O)c1nnc(NN)[nH]c1=O | > 200 µM | > 200 µM | –
83 | CCN(CC)CCNc1cccc2oc3ccc(OS(=O)(=O)c4ccc(C)cc4)cc3c(=O)c12 | > 15.1 µM | 6.31 µM | –
84 | NNC(=S)SSC(=S)NN | > 200 µM | 21.9 µM | –
85 | N#Cc1c(-c2ccccc2)c(C#N)c(=S)n(C2OC(CO)C(O)C(O)C2O)c1N (stereo not drawn) | > 200 µM | 83.2 µM and 64.6 µM | –
86 | CC(O)CCNc1nnc2c3ccccc3n(C)c2n1 (stereo not drawn) | > 200 µM | > 200 µM | –
87 | O=C(NCc1ccccc1)/C(=C/c1ccc2c(c1)OCO2)NC(=O)c1ccccc1 | > 200 µM | > 200 µM | –
88 | COc1ccc(NC(=O)/C(=N/NC(N)=S)C2C(=O)NC(=S)NC2=O)c(OC)c1 | > 589 µM | > 589 µM | –
89 | COc1cccc2c1C(c1cccc3ccccc13)OC2=O (stereo not drawn) | > 45.7 µM | 7.94 µM | –
90 | COc1ccc2oc(=N)c(C(=O)NCc3ccccc3)cc2c1 | > 200 µM | 17.8 µM | –
